# Source: patent publication US8796289B2 (AbbVie Inc., priority 2011, dated 2014)
# Target: GST-tagged-Wee1 kinase (Homo sapiens, UniProt P30291)
# Experiment: Wee1 time-resolved fluorescence equilibrium binding assay (displacement of Oregon Green-labeled ATP-competitive kinase probe)
# Description: Wee1 kinase was assayed using a time-resolved fluorescence equilibrium binding assay monitoring displacement of a rapidly reversible Oregon Green-labeled ATP-competitive kinase probe (N-(2-(2-(2-(4-(4-(5-chloro-4-(2-(1-hydroxycyclobutyl)thiazol-5-yl)-1H-pyrrolo[2,3-b]pyridin-2-yl)phenyl)piperazin-1-yl)ethoxy)ethoxy)ethyl)-2′,7′-difluoro-3′,6′-dihydroxy-3-oxo-3H-spiro[isobenzofuran-1,9′-xanthene]-5-carboxamide) by competitive Wee1 inhibitors.
# Chain of GST-tagged-Wee1 kinase (P30291 whole entry): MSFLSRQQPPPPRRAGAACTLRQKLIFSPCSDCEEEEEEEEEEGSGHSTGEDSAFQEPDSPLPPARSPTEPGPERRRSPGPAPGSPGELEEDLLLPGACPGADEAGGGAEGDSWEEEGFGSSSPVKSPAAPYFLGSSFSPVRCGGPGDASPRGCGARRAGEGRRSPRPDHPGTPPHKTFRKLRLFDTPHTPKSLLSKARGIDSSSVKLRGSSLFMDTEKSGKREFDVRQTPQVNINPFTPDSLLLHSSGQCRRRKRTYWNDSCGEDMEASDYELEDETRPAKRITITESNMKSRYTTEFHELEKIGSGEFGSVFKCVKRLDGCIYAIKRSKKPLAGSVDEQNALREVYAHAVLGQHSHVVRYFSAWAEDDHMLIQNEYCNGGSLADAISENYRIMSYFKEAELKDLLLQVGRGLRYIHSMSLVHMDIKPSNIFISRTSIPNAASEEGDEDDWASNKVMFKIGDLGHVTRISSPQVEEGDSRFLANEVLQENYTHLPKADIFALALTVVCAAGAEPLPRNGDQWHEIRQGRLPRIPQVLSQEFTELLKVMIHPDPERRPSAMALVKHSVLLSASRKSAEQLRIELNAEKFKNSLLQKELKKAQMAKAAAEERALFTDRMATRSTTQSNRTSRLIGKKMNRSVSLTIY
row,Ki [µM],Compound
1,0.001,"COc1ccccc1-n1nc(-c2ccccc2)c2nc(Nc3ccc(N4CCN(C)CC4)cc3)ncc2c1=O [Example 30, 6-(2-methoxyphenyl)-2-{[4-(4-methylpiperazin-1-yl)phenyl]amino}-8-phenylpyrimido[4,5-d]pyridazin-5(6H)-one]"
2,0.0008,"CN1CCN(c2ccc(Nc3ncc4c(=O)n(-c5ccccc5C(F)(F)F)nc(-c5ccccc5)c4n3)cc2)CC1 [Example 31, 2-{[4-(4-methylpiperazin-1-yl)phenyl]amino}-8-phenyl-6-[2-(trifluoromethyl)phenyl]pyrimido[4,5-d]pyridazin-5(6H)-one]"
3,0.004,"CN1CCN(c2ccc(Nc3ncc4c(=O)n(-c5ccccc5)nc(-c5ccco5)c4n3)cc2)CC1 [Example 34, 8-(2-furyl)-2-{[4-(4-methylpiperazin-1-yl)phenyl]amino}-6-phenylpyrimido[4,5-d]pyridazin-5(6H)-one]"
4,0.018,"C=CCn1nc(-c2ccccc2F)c2nc(Nc3ccc(N4CCN(C)CC4)cc3)ncc2c1=O [Example 35, 6-allyl-8-(2-fluorophenyl)-2-{[4-(4-methylpiperazin-1-yl)phenyl]amino}pyrimido[4,5-d]pyridazin-5(6H)-one]"
5,0.003,"Cc1ccccc1-n1nc(-c2ccccc2F)c2nc(Nc3ccc(N4CCN(C)CC4)cc3)ncc2c1=O [Example 36, 8-(2-fluorophenyl)-6-(2-methylphenyl)-2-{[4-(4-methylpiperazin-1-yl)phenyl]amino}pyrimido[4,5-d]pyridazin-5(6H)-one]"
6,0.018,"CN1CCN(c2ccc(Nc3ncc4c(=O)n(-c5ccccc5)nc(-c5ccccc5F)c4n3)cc2)CC1 [Example 37, 8-(2-fluorophenyl)-2-{[4-(4-methylpiperazin-1-yl)phenyl]amino}-6-phenylpyrimido[4,5-d]pyridazin-5(6H)-one]"
7,0.024,"CN1CCN(c2ccc(Nc3ncc4c(=O)n(-c5ccccc5Cl)nc(-c5ccc(Cl)cc5Cl)c4n3)cc2)CC1 [Example 38, 6-(2-chlorophenyl)-8-(2,4-dichlorophenyl)-2-{[4-(4-methylpiperazin-1-yl)phenyl]amino}pyrimido[4,5-d]pyridazin-5(6H)-one]"
8,0.25,"CN1CCN(c2ccc(Nc3ncc4c(=O)n(-c5ccccc5C(F)(F)F)nc(-c5ccc(Cl)cc5Cl)c4n3)cc2)CC1 [Example 39, 8-(2,4-dichlorophenyl)-2-{[4-(4-methylpiperazin-1-yl)phenyl]amino}-6-[2-(trifluoromethyl)phenyl]pyrimido[4,5-d]pyridazin-5(6H)-one]"
9,0.001,"CN1CCN(c2ccc(Nc3ncc4c(=O)n(-c5ccccc5Cl)nc(-c5ccccc5F)c4n3)cc2)CC1 [Example 40, 6-(2-chlorophenyl)-8-(2-fluorophenyl)-2-{[4-(4-methylpiperazin-1-yl)phenyl]amino}pyrimido[4,5-d]pyridazin-5(6H)-one]"
10,0.038,"Cc1ccccc1-n1nc(-c2ccc(Cl)cc2Cl)c2nc(Nc3ccc(N4CCN(C)CC4)cc3)ncc2c1=O [Example 41, 8-(2,4-dichlorophenyl)-6-(2-methylphenyl)-2-{[4-(4-methylpiperazin-1-yl)phenyl]amino}pyrimido[4,5-d]pyridazin-5(6H)-one]"
11,0.4,"CN1CCN(c2ccc(Nc3ncc4c(=O)n(-c5ccccc5)nc(-c5ccc(Cl)cc5Cl)c4n3)cc2)CC1 [Example 42, 8-(2,4-dichlorophenyl)-2-{[4-(4-methylpiperazin-1-yl)phenyl]amino}-6-phenylpyrimido[4,5-d]pyridazin-5(6H)-one]"
12,0.26,"COc1ccccc1-n1nc(-c2ccc(Cl)cc2Cl)c2nc(Nc3ccc(N4CCN(C)CC4)cc3)ncc2c1=O [Example 43, 8-(2,4-dichlorophenyl)-6-(2-methoxyphenyl)-2-{[4-(4-methylpiperazin-1-yl)phenyl]amino}pyrimido[4,5-d]pyridazin-5(6H)-one]"
13,0.52,"CN1CCN(c2ccc(Nc3ncc4c(=O)n(-c5cccc(Cl)c5)nc(-c5ccc(Cl)cc5Cl)c4n3)cc2)CC1 [Example 44, 6-(3-chlorophenyl)-8-(2,4-dichlorophenyl)-2-{[4-(4-methylpiperazin-1-yl)phenyl]amino}pyrimido[4,5-d]pyridazin-5(6H)-one]"
